Reference: patent US20140249293A1, “Absent and Rare Peptides and Therapeutic Uses Thereof” (Boise State University, priority 2012, published 2014)
Read-outs that look alike come from different tables or passages of the source. Ends that are not written are not given here.

What was measured:
[1] = system: paclitaxel-resistant LnCap cells; assay: MTT assay of paclitaxel-resistant LnCap cells (reversal of paclitaxel resistance); format: cell-based; conditions: paclitaxel alone, even at 600 μM (data not shown)
Experimental: The 9R peptide (SEQ ID NO: 200; labeled “9” in FIG. 16) was tested for its ability to reverse paclitaxel (TAXOL™) resistance in paclitaxel-resistant LnCap cells.
Paclitaxel-resistant LnCaP cells were treated with the peptides for 120 hours, and incubated with MTT for 4 hours. The paclitaxel-resistant LnCap cells were resistant to paclitaxel even at 600 μM concentration (data not shown). Referring to FIG. 16, the paclitaxel-resistant LnCap cells were resistant to 9R at the 100 μM level (labeled **). However, the combination of paclitaxel (at little as 30 nM) and 9R (at little as 5 μM) killed the paclitaxel-resistant LnCap cells (labeled ***).

LnCaP cells [2] = conditions: for IC50: 48 h
Experimental: LnCaP cells were treated with peptides 9R, 9S1, 120 (SEQ ID NO: 120) and a vehicle control. LnCaP cells were treated with the peptides for 48 hours, and incubated with MTT for 4 hours. For background level of absorbance, media alone was measured on the plate. […] Several concentrations of peptides were used to determine the IC50 of these peptides.
These cells were treated with an identical concentration (30 μM) of peptoprime peptide 120.

mice = conditions: cited from earlier work
[3] = system: Normal (non-cancer) human lung fibroblast cells (WI-38); assay: MTT assay of WI-38 cells; format: cell-based; conditions: WI-38 normal fibroblasts, treated 1 hour, MTT 4 hours
Experimental: Normal (non-cancer) human lung fibroblast cells (WI-38) were also treated with the 9R, 9S1, and 120 peptides. WI-38 cells were treated with the peptides for 1 hour and followed by MTT for 4 hours. Although the treated cells show no decrease in MTT absorbance, this may have been due to the cells being plated at lower concentration, and may not have been actively dividing.

LnCaP cells [4] = format: cell-based; conditions: 24 h
Description: The HCS MITOCHONDRIAL HEALTH KIT™ (available from Invitrogen) includes a dye that is taken up by healthy, actively respiring mitochondria. The uptake of this dye can be visualized with fluorescent confocal microscopy. FIGS. 9A-9C show control LnCaP cells treated only with the vehicle control (i.e., no peptide). The Hoechst dye stained nuclei of cells, whether they were alive or dead (Excitation/Emission maxima—Hoechst 33342: 350/461 nm). FIG. 9A is a panel showing all nuclei stained with Hoechst dye. FIG. 9B is a panel showing healthy mitochondria stained with MitoHealth dye. FIG. 9C is a panel showing the merged images of 9A and 9B. The mitochondrial health dye incorporated into the cells depends on mitochondrial membrane potential (excitation/emission maxima—MitoHealth stain: 550/580 nm). The HCS MITOCHONDRIAL HEALTH KIT™ (Invitrogen) was developed for simultaneous quantitative measurements of two cell health parameters in the same cell: mitotoxicity and cytotoxicity. The MitoHealth stain accumulated in mitochondria in live cells proportional to the mitochondrial membrane potential.
A range of peptide concentrations was applied to the LnCap cells. […] The cells were treated for 24 hrs.
A range of peptide concentrations was used to treat LnCap cells. […] The cells were incubated with peptide for 24 hrs.

Compound | IC50 (LnCaP cells [2]) [µM] | MTT absorbance [3] | IC50 (LnCaP cells [4]) [µM] | other results
CC(=O)O[C@H]1C(=O)[C@@]2(C)[C@H]([C@H](OC(=O)c3ccccc3)[C@]3(O)C[C@H](OC(=O)[C@H](O)[C@@H](NC(=O)c4ccccc4)c4ccccc4)C(C)=C1C3(C)C)[C@]1(OC(C)=O)CO[C@@H]1C[C@@H]2O [paclitaxel] | – | – | – | sensitivity of paclitaxel-resistant LnCap cells (MTT) [1]: resistant
OO [peroxide, Hydrogen peroxide, reference compound] | – | – | – | MTT absorbance value compared with control treatment cells (LnCaP cells [2]; LnCaP, treated 48 hours, MTT 4 hours): marked decrease
AQGV | – | – | – | recuperation after lethal exposure to radiation (mice): shown promise in accelerating the recuperation
RRRRRNWMWC [Peptide 9R, RRRRRNWMWC] | ~50 | no decrease | 100 | –
WCMNW [Peptide 9S1, WCMNW] | ~30 | no decrease | 30 | –
WFMHW [Peptide 120, WFMHW] | – | no effect | – | –
